Test results from US10150764B2, “Substituted benzene compounds” (Epizyme, Inc., priority 2013, dated 2018).

Tests used:
[1] = biological target: EZH2 Y641F mutant (PRC2 enzyme) (Homo sapiens (Human), UniProt Q15910, Y641F); assay: PRC2 enzyme assay on peptide substrate, EZH2 Y641F mutant (H3K27me2 peptide, 3H-SAM Flashplate); assay type: biochemical; conditions: Y641F mutant PRC2 4 nM
Method: (§1) Human PRC2 enzymes were purified as 4-component enzyme complexes co-expressed in Spodoptera frugiperda (sf9) cells using a baculovirus expression system. […] The EED subunit contained an N-terminal FLAG tag that was used to purify the entire 4-component complex from sf9 cell lysates.
(§2) The assays were all performed in a buffer consisting of 20 mM bicine (pH=7.6), 0.5 mM DTT, 0.005% BSG and 0.002% Tween20, prepared on the day of use. […] DMSO (1 μL) was added to columns 11, 12, 23, 24, rows A-H for the maximum signal control, and SAH, a known product and inhibitor of PRC2 (1 μL) was added to columns 11, 12, 23, 24, rows I-P for the minimum signal control. A cocktail (40 μL) containing the wild-type PRC2 enzyme and H3K27me0 peptide or any of the Y641 mutant enzymes and H3K27me2 peptide was added by Multidrop Combi (Thermo). The compounds were allowed to incubate with PRC2 for 30 min at 25° C., then a cocktail (10 μL) containing a mixture of non-radioactive and ^3H-SAM was added to initiate the reaction (final volume=51 μL). […] The assays were stopped by the addition of non-radioactive SAM (10 μL) to a final concentration of 600 μM, which dilutes the ^3H-SAM to a level where its incorporation into the peptide substrate is no longer detectable. 50 of the reaction in the 384-well polypropylene plate was then transferred to a 384-well Flashplate and the biotinylated peptides were allowed to bind to the streptavidin surface for at least 1 h before being washed three times with 0.1% Tween20 in a Biotek ELx405 plate washer. The plates were then read in a PerkinElmer TopCount platereader to measure the quantity of ^3H-labeled peptide bound to the Flashplate surface, measured as disintegrations per minute (dpm) or alternatively, referred to as counts per minute (cpm).

[2] = biological target: wild-type EZH2 (PRC2 enzyme) (Homo sapiens (Human), UniProt Q15910); assay: PRC2 enzyme assay on peptide substrate, wild-type EZH2 (H3K27me0 peptide, 3H-SAM Flashplate); assay type: biochemical; conditions: wild-type PRC2 4 nM, read-out: WT EZH2 IC50
Chain of wild-type EZH2 (PRC2 enzyme) (Q15910 whole entry): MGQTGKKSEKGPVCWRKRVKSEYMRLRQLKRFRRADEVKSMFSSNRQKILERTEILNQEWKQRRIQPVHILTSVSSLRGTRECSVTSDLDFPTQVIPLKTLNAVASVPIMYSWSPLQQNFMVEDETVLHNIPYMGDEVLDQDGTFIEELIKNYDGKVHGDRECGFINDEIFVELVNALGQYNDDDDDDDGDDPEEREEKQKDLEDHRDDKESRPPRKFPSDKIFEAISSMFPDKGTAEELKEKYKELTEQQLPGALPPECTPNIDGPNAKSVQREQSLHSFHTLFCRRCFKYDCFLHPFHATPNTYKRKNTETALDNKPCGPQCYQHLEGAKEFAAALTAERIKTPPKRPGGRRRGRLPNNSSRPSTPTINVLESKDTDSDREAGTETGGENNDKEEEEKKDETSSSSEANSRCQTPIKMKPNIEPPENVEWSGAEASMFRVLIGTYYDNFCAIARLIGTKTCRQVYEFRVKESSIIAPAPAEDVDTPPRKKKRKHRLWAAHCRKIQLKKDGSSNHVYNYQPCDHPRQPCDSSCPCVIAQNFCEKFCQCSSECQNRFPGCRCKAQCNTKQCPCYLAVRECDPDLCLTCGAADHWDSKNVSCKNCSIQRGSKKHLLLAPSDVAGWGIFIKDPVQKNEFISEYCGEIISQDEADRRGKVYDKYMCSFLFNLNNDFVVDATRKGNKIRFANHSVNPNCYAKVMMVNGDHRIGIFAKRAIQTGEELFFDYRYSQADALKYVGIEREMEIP
Chain of wild-type EZH2 (PRC2 enzyme) (O75530 whole entry partner): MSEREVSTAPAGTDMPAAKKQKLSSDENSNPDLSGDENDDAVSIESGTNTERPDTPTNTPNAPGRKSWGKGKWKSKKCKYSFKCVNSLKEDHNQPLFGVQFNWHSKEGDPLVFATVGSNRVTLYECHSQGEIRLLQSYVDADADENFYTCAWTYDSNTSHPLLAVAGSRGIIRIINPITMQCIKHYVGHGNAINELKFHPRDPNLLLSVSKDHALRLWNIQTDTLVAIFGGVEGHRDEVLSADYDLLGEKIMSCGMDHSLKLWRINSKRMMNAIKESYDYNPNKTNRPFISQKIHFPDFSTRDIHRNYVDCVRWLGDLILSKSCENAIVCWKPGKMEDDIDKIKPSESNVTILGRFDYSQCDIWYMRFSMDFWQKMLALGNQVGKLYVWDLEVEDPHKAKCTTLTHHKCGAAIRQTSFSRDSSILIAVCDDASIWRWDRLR
Chain of wild-type EZH2 (PRC2 enzyme) (Q15022 whole entry partner): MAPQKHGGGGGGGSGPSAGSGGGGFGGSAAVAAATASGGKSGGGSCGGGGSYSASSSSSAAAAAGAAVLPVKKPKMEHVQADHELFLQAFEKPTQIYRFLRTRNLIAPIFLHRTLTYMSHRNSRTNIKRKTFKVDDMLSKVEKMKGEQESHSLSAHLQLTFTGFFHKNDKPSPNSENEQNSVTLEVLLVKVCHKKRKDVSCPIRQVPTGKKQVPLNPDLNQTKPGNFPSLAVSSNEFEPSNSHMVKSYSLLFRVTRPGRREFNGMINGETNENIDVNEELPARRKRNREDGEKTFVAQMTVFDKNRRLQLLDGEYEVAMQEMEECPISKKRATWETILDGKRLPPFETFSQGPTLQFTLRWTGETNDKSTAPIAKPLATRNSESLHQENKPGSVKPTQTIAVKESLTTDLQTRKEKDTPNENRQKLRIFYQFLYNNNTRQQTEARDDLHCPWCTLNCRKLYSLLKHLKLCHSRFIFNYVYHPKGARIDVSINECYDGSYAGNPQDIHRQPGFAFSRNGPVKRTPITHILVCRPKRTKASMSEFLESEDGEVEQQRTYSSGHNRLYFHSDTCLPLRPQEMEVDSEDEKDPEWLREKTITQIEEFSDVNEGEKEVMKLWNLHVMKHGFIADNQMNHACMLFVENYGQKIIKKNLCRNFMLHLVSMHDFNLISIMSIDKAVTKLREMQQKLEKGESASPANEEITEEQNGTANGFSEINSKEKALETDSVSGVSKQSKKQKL
Chain of wild-type EZH2 (PRC2 enzyme) (Q09028 whole entry partner): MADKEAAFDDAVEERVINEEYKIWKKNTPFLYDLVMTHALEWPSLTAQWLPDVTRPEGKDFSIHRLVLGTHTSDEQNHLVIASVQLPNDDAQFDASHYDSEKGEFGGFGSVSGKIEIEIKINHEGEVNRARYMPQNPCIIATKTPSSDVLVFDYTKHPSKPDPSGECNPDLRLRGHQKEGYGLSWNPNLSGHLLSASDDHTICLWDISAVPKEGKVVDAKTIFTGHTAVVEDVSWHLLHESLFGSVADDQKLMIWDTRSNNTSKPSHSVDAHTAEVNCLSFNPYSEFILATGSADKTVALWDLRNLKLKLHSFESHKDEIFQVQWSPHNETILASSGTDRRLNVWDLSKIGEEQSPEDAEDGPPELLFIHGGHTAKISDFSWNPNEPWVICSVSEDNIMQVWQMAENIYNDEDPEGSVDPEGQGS
Method: as §1, §2

[3] = system: H3K27me3 in WSU-DLCL2 cells; assay: WSU-DLCL2 methylation assay (H3K27me3 ELISA); assay type: cell-based, human; conditions: H3K27me3 normalised to total H3
From the text: WSU-DLCL2 Methylation Assay
WSU-DLCL2 suspension cells were purchased from DSMZ (German Collection of Microorganisms and Cell Cultures, Braunschweig, Germany). RPMI/Glutamax Medium, Penicillin-Streptomycin, Heat Inactivated Fetal Bovine Serum, and D-PBS were purchased from Life Technologies, Grand Island, N.Y., USA. Extraction Buffer and Neutralization Buffer (5×) were purchased from Active Motif, Carlsbad, Calif., USA. Rabbit anti-Histone H3 antibody was purchased from Abcam, Cambridge, Mass., USA. Rabbit anti-H3K27me3 and HRP-conjugated anti-rabbit-IgG were purchased from Cell Signaling Technology, Danvers, Mass., USA. TMB “Super Sensitive” substrate was sourced from BioFX Laboratories, Owings Mills, Md., USA. IgG-free Bovine Serum Albumin was purchased from Jackson ImmunoResearch, West Grove, Pa., USA. PBS with Tween (10×PBST) was purchased from KPL, Gaithersburg, Md., USA. Sulfuric Acid was purchased from Ricca Chemical, Arlington, Tex., USA. Immulon ELISA plates were purchased from Thermo, Rochester, N.Y., USA. V-bottom cell culture plates were purchased from Corning Inc., Corning, N.Y., USA. V-bottom polypropylene plates were purchased from Greiner Bio-One, Monroe, N.C., USA.
WSU-DLCL2 suspension cells were maintained in growth medium (RPMI 1640 supplemented with 10% v/v heat inactivated fetal bovine serum and 100 units/mL penicillin-streptomycin) and cultured at 37° C. under 5% CO2. Under assay conditions, cells were incubated in Assay Medium (RPMI 1640 supplemented with 20% v/v heat inactivated fetal bovine serum and 100 units/mL penicillin-streptomycin) at 37° C. under 5% CO2 on a plate shaker.
WSU-DLCL2 cells were seeded in assay medium at a concentration of 50,000 cells per mL to a 96-well V-bottom cell culture plate with 200 μL per well. […] Plates were incubated on a titer-plate shaker at 37° C., 5% CO2 for 96 hours. After four days of incubation, plates were spun at 241×g for five minutes and medium was aspirated gently from each well of cell plate without disturbing cell pellet. Pellet was resuspended in: 200 μL DPBS and plates were spun again at 241×g for five minutes. The supernatant was aspirated and cold (4° C.) Extraction buffer (100 μL) was added per well. Plates were incubated at 4° C. on orbital shaker for two hours. Plates were spun at 3427×g×10 minutes. Supernatant (80 μL per well) was transferred to its respective well in 96 well V-bottom polypropylene plate. Neutralization Buffer 5× (20 μL per well) was added to V-bottom polypropylene plate containing supernatant. V-bottom polypropylene plates containing crude histone preparation (CHP) were incubated on orbital shaker×five minutes. Crude Histone Preparations were added (2 μL per well) to each respective well into duplicate 96 well ELISA plates containing 100 μL Coating Buffer (1×PBS+BSA 0.05% w/v). Plates were sealed and incubated overnight at 4° C. The following day, plates were washed three times with 300 μL per well 1×PBST. […] For H3K27me3 detection, 100 μL of HRP conjugated anti-rabbit IgG antibody diluted to 1:4000 in ELISA diluent was added per well. Plates were incubated at room temperature for 90 minutes. […] TMB substrate 100 μL was added per well. Histone H3 plates were incubated for five minutes at room temperature. H3K27me3 plates were incubated for 10 minutes at room temperature. The reaction was stopped with sulfuric acid 1N (100 μL per well). Absorbance for each plate was read at 450 nm.
Each plate included eight control wells DMSO only treatment (Minimum Inhibition) as well as eight control wells for maximum inhibition (Background wells).
The average of the ratio values for each control type was calculated and used to determine the percent inhibition for each test well in the plate. Test compound was serially diluted three-fold in DMSO for a total of ten test concentrations, beginning at 25 μM.

[4] = Homo sapiens, WSUDLCL2, 96 hours incubation

Chain of EZH2 Y641F mutant (PRC2 enzyme) (Q15910 whole entry Y641F): as the sequence (Q15910 whole entry) above, with Y641F counted along it
Chain of EZH2 Y641F mutant (PRC2 enzyme) (O75530 whole entry partner): as the sequence (O75530 whole entry partner) above
Chain of EZH2 Y641F mutant (PRC2 enzyme) (Q15022 whole entry partner): as the sequence (Q15022 whole entry partner) above
Chain of EZH2 Y641F mutant (PRC2 enzyme) (Q09028 whole entry partner): as the sequence (Q09028 whole entry partner) above

| IC50 [1] | IC50 [2] | Compound | IC50 ([3]; 96 hours incubation) | IC50 [3, 4] |
| --- | --- | --- | --- | --- |
| 26.2 µM | 37.2 µM | CCN(c1cc(Cl)cc(C(=O)NCc2c(C)[nH]n(C)c2=O)c1C)[C@@H]1COC[C@H]1O (relative stereo) [Compound 41, 5-chloro-N-((2,5-dimethyl-3-oxo-2,3-dihydro-1H-pyrazol-4-yl)methyl)-3-(ethyl((trans)-4-hydroxytetrahydrofuran-3-yl)amino)-2-methylbenzamide] |  | > 50 µM |
| 0.007 µM | 0.024 µM | CCN(c1cc(-c2ccc(OCCOC)cc2)cc(C(=O)NCc2c(C)[nH][nH]c2=O)c1C)[C@H]1CC[C@H](N(C)C)CC1 [Compound 30, 5-(((trans)-4-(dimethylamino)cyclohexyl)(ethyl)amino)-4′-(2-methoxyethoxy)-4-methyl-N-((5-methyl-3-oxo-2,3-dihydro-1H-pyrazol-4-yl)methyl)-[1,1′-biphenyl]-3-carboxamide] |  | 29 µM |
|  |  | CCN(c1cc(-c2ccc(CN3CCOCC3)cc2)cc(C(=O)NCc2c(C)[nH]n(C)c2=O)c1C)C1CCOCC1 [Compound 46, N-((2,5-dimethyl-3-oxo-2,3-dihydro-1H-pyrazol-4-yl)methyl)-5-(ethyl(tetrahydro-2H-pyran-4-yl)amino)-4-methyl-4′-(morpholinomethyl)-[1,1′-biphenyl]-3-carboxamide] |  | > 50 µM |
|  |  | CCN(c1cc(-c2ccc(N3CCNCC3)nc2)cc(C(=O)NCc2c(C)[nH]n(C)c2=O)c1C)C1CCOCC1 [Compound 47, N-((2,5-dimethyl-3-oxo-2,3-dihydro-1H-pyrazol-4-yl)methyl)-3-(ethyl(tetrahydro-2H-pyran-4-yl)amino)-2-methyl-5-(6-(piperazin-1-yl)pyridin-3-yl)benzamide] |  | > 50 µM |
| 0.418 µM | 0.695 µM | CCN(c1cc(Cl)cc(C(=O)NCc2c(C)n(C)[nH]c2=O)c1C)[C@H]1CC[C@H](N(C)CCOC)CC1 [Compound 55, 5-chloro-N-((1,5-dimethyl-3-oxo-2,3-dihydro-1H-pyrazol-4-yl)methyl)-3-(ethyl((trans)-4-((2-methoxyethyl)(methyl)amino)cyclohexyl)amino)-2-methylbenzamide] |  | 30.6 µM |
| 0.193 µM | 0.745 µM | CCn1nc(OC)c(CNC(=O)c2cc(Cl)cc(N(CC)[C@H]3CC[C@H](N(C)Cc4cccc(OC)c4)CC3)c2C)c1C [Compound 62, 5-chloro-3-(ethyl((trans)-4-((3-methoxybenzyl)-(methyl)-amino)-cyclohexyl)-amino)-N-((1-ethyl-3-methoxy-5-methyl-1H-pyrazol-4-yl)methyl)-2-methylbenzamide] |  | > 50 µM |
| 49.4 µM | > 50 µM | CCN(c1cc(Cl)cc(C(=O)NCc2c(OC)nn(C)c2N2CCCC2)c1C)[C@H]1CC[C@H](N(C)C)CC1 [Compound 80, 5-chloro-3-(((trans)-4-(dimethylamino)cyclohexyl) (ethyl)amino)-N-((3-methoxy-1-methyl-5-(pyrrolidin-1-yl)-1H-pyrazol-4-yl)methyl)-2-methylbenzamide] |  |  |
| 27 µM | 22.9 µM | CCN(c1cc(Cl)cc(C(=O)NCc2c(OC)nn(C)c2N2CCOCC2)c1C)[C@H]1CC[C@H](N(C)C)CC1 [Compound 82, 5-chloro-3-(((trans)-4-(dimethylamino)cyclohexyl) (ethyl)amino)-N-((3-methoxy-1-methyl-5-morpholino-1H-pyrazol-4-yl)methyl)-2-methylbenzamide] |  |  |
| 18.3 µM | 45.8 µM | CCN(c1cc(Cl)cc(C(=O)NCc2c(OC)nn(C)c2N2CCCCC2)c1C)[C@H]1CC[C@H](N(C)Cc2cccc(OC)c2)CC1 [Compound 83, 5-chloro-3-(ethyl((trans)-4-((3-methoxybenzyl)(methyl)amino)cyclohexyl)amino)-N-((3-methoxy-1-methyl-5-(piperidin-1-yl)-1H-pyrazol-4-yl)methyl)-2-methylbenzamide] |  |  |
| 0.253 µM | 0.335 µM | CCN(c1cc(Cl)cc(C(=O)NCc2c(C)n(C)n(C)c2=O)c1C)[C@H]1CC[C@H](N(C)C)CC1 [Compound 87, 5-chloro-3-(ethyl((trans)-4-(dimethylamino)cyclohexyl)amino)-2-methyl-N-((1,2,5-trimethyl-3-oxo-2,3-dihydro-1H-pyrazol-4-yl)methyl)benzamide] |  |  |
| 46.4 µM | > 50 µM | CCN(c1cc(Cl)cc(C(=O)NCc2c(C(F)(F)F)nn(C)c2OC)c1C)[C@H]1CC[C@H](N(C)C)CC1 [Compound 88, 5-chloro-3-(ethyl((trans)-4-(dimethylamino)cyclohexyl)amino)-N-((5-methoxy-1-methyl-3-(trifluoromethyl)-1H-pyrazol-4-yl)methyl)-2-methylbenzamide] |  |  |
| > 50 µM | > 50 µM | CCN(c1cc(Cl)cc(C(=O)NCc2c(C(F)(F)F)[nH]n(C)c2=O)c1C)[C@H]1CC[C@H](N(C)C)CC1 [Compound 89, 5-chloro-3-(ethyl((trans)-4-(dimethylamino)cyclohexyl)amino)-2-methyl-N-((2-methyl-3-oxo-5-(trifluoromethyl)-2,3-dihydro-1H-pyrazol-4-yl)methyl)benzamide] |  |  |
| 0.502 µM | 1.91 µM | CCN(c1cc(Cl)cc(C(=O)NCc2c(C(F)(F)F)n(C)n(C)c2=O)c1C)[C@H]1CC[C@H](N(C)C)CC1 [Compound 90, 5-chloro-N-((1,2-dimethyl-3-oxo-5-(trifluoromethyl)-2,3-dihydro-1H-pyrazol-4-yl)methyl)-3-(ethyl((trans)-4-(dimethylamino)cyclohexyl)amino)-2-methylbenzamide] |  |  |
| 1.17 µM | 7.45 µM | CCN(c1cc(Cl)cc(C(=O)NCc2c(C)nn(C)c2OC)c1C)[C@H]1CC[C@H](N(C)C)CC1 [Compound 91, 5-chloro-N-((5-methoxy-1,3-dimethyl-1H-pyrazol-4-yl)methyl)-3-(((trans)-4-(dimethylamino)cyclohexyl)(ethyl)amino)-2-methylbenzamide] |  | > 50 µM |
| > 50 µM | > 50 µM | CCN(c1cc(Cl)cc(C(=O)NCc2c(OC)nn(C)c2N2CCCCC2)c1C)[C@H]1CC[C@H](N(C)C)CC1 [Compound 92, 5-chloro-3-(ethyl[(trans)-4-(dimethylamino)cyclohexyl]amino)-N-([3-methoxy-1-methyl-5-(piperidin-1-yl)-1H-pyrazol-4-yl]methyl)-2-methylbenzamide] |  |  |
| 0.0144 µM | 0.00971 µM | CCN(c1cc(Cl)cc(C(=O)NCc2c(N3CCCCC3)n(C)[nH]c2=O)c1C)[C@H]1CC[C@H](N(C)C)CC1 [Compound 93, 5-chloro-3-(ethyl[(trans)-4-(dimethylamino)cyclohexyl]amino)-2-methyl-N-([1-methyl-3-oxo-5-(piperidin-1-yl)-2,3-dihydro-1H-pyrazol-4-yl]methyl)benzamide] |  | 3.55 µM |
| > 50 µM | > 50 µM | CCN(c1cc(Cl)cc(C(=O)NCc2c(N3CCCCC3)nn(C)c2OC)c1C)[C@H]1CC[C@H](N(C)C)CC1 [Compound 94, 5-chloro-3-(((trans)-4-(dimethylamino)cyclohexyl)(ethyl)amino)-N-((5-methoxy-1-methyl-3-(piperidin-1-yl)-1H-pyrazol-4-yl)methyl)-2-methylbenzamide] |  |  |
| 17.7 µM | > 50 µM | CCN(c1cc(Cl)cc(C(=O)NCc2c(OC)nn(C)c2OC)c1C)[C@H]1CC[C@H](N(C)C)CC1 [Compound 95, 5-chloro-N-((3,5-dimethoxy-1-methyl-1H-pyrazol-4-yl)methyl)-3-(((trans)-4-(dimethylamino)cyclohexyl)(ethyl)amino)-2-methylbenzamide] |  |  |

| Compound | IC50 [1] | IC50 [2] | IC50 ([3]; 96 hours incubation) | IC50 [3, 4] |
| --- | --- | --- | --- | --- |
| 5-chloro-3-(ethyl((trans)-4-((4-methoxybenzyl)(methyl)amino) cyclohexyl)amino)-2-methyl-N-((1-methyl-3-oxo-5-(piperidin-1-yl)-2,3-dihydro-1H-pyrazol-4-yl)methyl)benzamide [Compound 84] | 1.22 µM | 1.44 µM | 16.7 µM |  |
| CCN(c1cc(Cl)cc(C(=O)NCc2c(C)n(C)[nH]c2=O)c1C)C1CCN(CCOC)CC1 [Compound 77, 5-chloro-N-((1,5-dimethyl-3-oxo-2,3-dihydro-1H-pyrazol-4-yl)methyl)-3-(ethyl(1-(2-methoxyethyl)piperidin-4-yl)amino)-2-methylbenzamide] | 4.69 µM | 12.6 µM |  |  |
| CCN(c1cc(Cl)cc(C(=O)NCc2c(OC)nn(C)c2C)c1C)C1CCN(CCc2cccc(OC)c2)CC1 [Compound 78, 5-chloro-3-(ethyl(1-(3-methoxyphenethyl)piperidin-4-yl)amino)-N-((3-methoxy-1,5-dimethyl-1H-pyrazol-4-yl)methyl)-2-methylbenzamide] | 4.26 µM | 17.6 µM |  |  |
| CCN(c1cc(Cl)cc(C(=O)NCc2c(C)n(C)[nH]c2=O)c1C)C1CCN(CCc2cccc(OC)c2)CC1 [Compound 79, 5-chloro-N-((1,5-dimethyl-3-oxo-2,3-dihydro-1H-pyrazol-4-yl)methyl)-3-(ethyl(1-(3-methoxyphenethyl)piperidin-4-yl)amino)-2-methylbenzamide] | 0.1 µM | 0.485 µM |  |  |
